Laboratory results from US20240299335A1, “SHELF-STABLE FORMULATIONS OF BENZOYL PEROXIDE AND METHODS OF PRODUCING SAME” (BLUE HILL TECHNOLOGIES LLC, priority 2022, published 2024).
“Also recorded” adds a separate entry of the source.

How the values were obtained:
Format in all cases: physicochemical
[1] = Effect of antioxidants on benzene levels in 10% w/v benzoyl peroxide formulations (headspace GC-MS); details: 10% w/v benzoyl peroxide plus antioxidant
Description: Agilent 7890B Gas Chromatography (GC) system equipped with 7697A headspace autosampler coupled with 5977B Mass Selective Detector (MS) was used for sample analysis, and a DB-Select 624 UI, 60 m×0.32 mm×1.8 μm GC column (Agilent Technology, Santa Clara, CA) was used to separate benzene from other compounds. Dimethyl sulfoxide (DMSO, GC Headspace Grade) was used for sample preparation (Thermo Fisher Scientific, Waltham, MA). All certified reference standards, solution, and buffer reagents including sodium citrate dihydrate, citric acid, tris, and glycerol were sourced from Sigma-Aldrich, St. Louis, MO.
For benzoyl peroxide stability studies in glycerol, benzoyl peroxide was prepared in a stock suspension of 20% w/v in glycerol and mixed 1:1 with 20% w/v suspensions or v/v solutions of antioxidants in glycerol. For pH experiments, the same stock suspension of benzoyl peroxide was mixed 1:1 with a 50% glycerol solution with 200 mM buffering agent (Citrate buffer pH 3.0, Tris Buffer pH 7.0, or Tris Buffer pH 9.0) for final 75% glycerol solution. The final volume of all reactions was 100 μL in GC headspace vials with 10% solution benzoyl peroxide (10 mg) and 10% antioxidant or 100 mM buffering agent. Vials were immediately crimp sealed for incubation. For analysis, 4.9 mL of DMSO was added to make up the final volume to approximate 5 mL, crimp sealed, and gently vortexed to mix.
Benzene standard was diluted in DMSO for an 11-point calibration ranging from 10 ng/vial to 100 μg/vial. The coefficient of determination R^2 were greater than 0.999. Five (5) mL of DMSO was used for negative control samples.
Benzoyl peroxide products in original packaging were incubated for up to one month at 25° C., 37° C., or 50° C. and sampled periodically. Benzoyl peroxide and products with antioxidant additions or buffering agent additions were prepared and incubated in crimp sealed GC headspace vials.
The method USP <467> Residual Solvents Procedure A was modified from flame ionization detection (FID) to mass spectrometry (MS) detection for benzene in benzoyl peroxide products. The gas chromatography (GC) methods were also modified to allow shorter run time and the method was validated for addition of up to 500 mg benzoyl peroxide product or […] glycerol. Identification of benzene was based on the retention time matching to certified reference standards and mass spectral m/z matching to benzene. Lower limit of detection (LLOD) was 10 ng (equivalent to 0.02 ppm in hand benzoyl peroxide products) and LLOQ was 25 μg. The measurement uncertainty was determined to be 20%.
10% w/v benzoyl peroxide formulations were prepared. […]

[2] = Effect of antioxidants on benzene levels in FDA-approved benzoyl peroxide drug products (headspace GC-MS); details: antioxidant added to commercial drug products; 50° C. for 2 days; FIG. 5
Description: (§1) The method USP <467> Residual Solvents Procedure A was modified from flame ionization detection (FID) to mass spectrometry (MS) detection for benzene in benzoyl peroxide products. […] Identification of benzene was based on the retention time matching to certified reference standards and mass spectral m/z matching to benzene.

[3] = Effect of solvents on benzene levels in 10% w/v benzoyl peroxide formulations (headspace GC-MS); details: 10% benzoyl peroxide in the solvent; 37° C. for 10 days; compared to glycerol or NMP; FIG. 8
Method: as §1
10% w/v benzoyl peroxide formulations were prepared. […] Benzene levels in each formulation were tested at various time points according to the protocols described in Example 1.

[4] = Benzene levels formed by crystalline benzoyl peroxide on incubation (headspace GC-MS); details: incubated at 50° C. for up to 12 days; FIG. 11
Description: as §1

[5] = 37° C. for up to two weeks, FIG. 3
[6] = 50° C. for up to two weeks, FIG. 4

| Compound | levels of benzene formed in the formulations [1, 5] | levels of benzene formed in the formulations [1, 6] | levels of benzene formed in two FDA-approved drug products with added antioxidant [2] | levels of benzene formed in the formulations [3] | other results |
| --- | --- | --- | --- | --- | --- |
| Cc1cc(C(C)(C)C)c(O)c(C(C)(C)C)c1 [BHT, butylated hydroxytoluene] | reduced the levels of benzene; also recorded: most dramatic reduction | reduced the levels of benzene; also recorded: most dramatic reduction | reduce the degradation of benzoyl peroxide to benzene |  |  |
| C[S+](C)[O-] [DMSO, dimethylsulfoxide] |  |  |  | most dramatic reduction in, or complete prevention of, benzene levels |  |
| CC(C)(C)c1cc(O)ccc1O [TBHQ, tert-butyl hydroquinone] |  |  | reduce the degradation of benzoyl peroxide to benzene |  |  |
| O=C(OOC(=O)c1ccccc1)c1ccccc1 [crystalline benzoyl peroxide, benzoyl peroxide] |  |  |  |  | levels of benzene formed [4]: may be protected from forming benzene levels |
| CC(=O)Oc1c(C)c(C)c2c(c1C)CCC(C)(CCC[C@H](C)CCC[C@H](C)CCCC(C)C)O2 (stereo partly drawn) [vitamin E acetate] | reduced the levels of benzene | reduced the levels of benzene |  |  |  |
| O [water] |  |  |  | most dramatic reduction in, or complete prevention of, benzene levels |  |
